pIC50: −log10 of the molar value. Like-named read-outs stand apart in the source and are kept apart here.
Legend:
PMHL = experiment: Nonspecific cytotoxicity, trypane blue exclusion test; format: cell-based, human
Procedure: Nonspecific cytotoxicity of the test compounds on PMHL was assessed by […] blue exclusion test.

HaCaT cells [1] = experiment: Cytotoxicity, LDH release into the culture medium; conditions: 48 h after onset of drug exposure
Procedure: HaCaT cells were grown as described.
Cytotoxicity was assessed by measurements of the content of intracellular lactate dehydrogenase (LDH) activity released into the culture medium during 48 h after onset of drug exposure. Possible drug induced detachment of the HaCaT cells from the plate was assessed by collection of the medium from the wells and centrifugation (80 x g, 10 min.) The resulting pellet was suspended in 10 µl medium and cells were counted in a haemocytometer.

[2] = test system: human polymorphonuclear leukocytes (PMNL); experiment: ROS generation from PMNL, lucigenin-amplified chemiluminescence; format: cell-based; conditions: Homo sapiens, PMNL, IC₅₀-values
Procedure: Human PMNL were isolated from fresh blood (anticoagulated with sodium citrate) by erythrocyte sedimentation with 1% dextran (Pharmacia, Uppsala, Sweden) centrifugation of the resulting supernatant, followed by hypoosmotic lysis to remove red blood cells. Washed cells were adjusted to 2 x 10⁶ cells/ml in PBS containing fetal calf serum (2%; v/v). Test compounds dissolved in DMSO were diluted with the assay buffer to a final DMSO concentration of 0.5% (v/v).
Then the test compounds (100 µl) were added with subsequent recording for another 16 min period. […] Results were expressed as percent of inhibition or stimulation of the controls (mean of two integrals) in a single experiment.

[3] = test system: TPA-induced ear edema in mice; experiment: Intraperitoneal administration, TPA-induced ear edema in mice; format: in vivo; conditions: intraperitoneally, 30, 10 or 3.3 mg/kg
Procedure: Mice were injected intraperitoneally with 30, 10 or 3.3 mg/kg body weight of the test substances, sphingosine in carboxymethylcellulose (0.5%) and tiflucarbine in physiologic Saline, 10 ml/kg body weight. After 60 minutes the mire were challenged on the left ear with a 0.01 wt% solution of 12-O-tetradecanoylphorbol-13-acetate (TPA) in a 80/20 mixture of acetone/water. At 0, 3, 6 and 24 h after challenge, ear thickness was determined.

[4] = test system: PKC from the central nervous system; experiment: Phosphorylation of synaptosomal plasma membranes: B-50 phosphorylation; format: biochemical; conditions: for phosphorylation of B-50 (% of control): without addition of CaM
Procedure: Subcellular fractionation and phosphorylation assay were performed according to Kristjansson et al., (1982). […] After a preincubation at 30°C for 5 min, the phosphorylation reaction was started by adding the ATP. The reaction was stopped after 15 sec. All compounds to be tested were present at the start of the preincubation. […]

rat brain synaptosomes = experiment: Noradrenaline release from permeated synaptosomes; format: cell-based; conditions: 100 µM
Procedure: Highly purified synaptosomes were prepared according to Dunkley and Robinson (1987). The synaptosomes were diluted with 3 ml buffer A (123 mM NaCl, 5 mM KCl, 2 mM CaCl₂, […], 1.15 mM NaH₂PO₄, 5.6 mM glucose, 20 mM PIPES pH 6.8, gassed with O₂:CO₂, 95:5) and incubated for 15 min at 37°C. Then 2.5 µCi noradrenalin (NA) was added, incubation was continued for 15 min and the synaptosomes were centrifuged for 20 min at 600 x g. The resulting pellet was washed twice in buffer A without CaCl₂ and resuspended (1 mg protein/ml).
For measurement of NA release, prelabeled synaptosomes were incubated at 37°C in buffer A containing Na₂ATP and EGTA-buffered Ca²⁺ in concentrations as indicated (final volume 120 µl). The release reaction was started by adding synaptosomes (20 µg protein) to the reaction mixture and terminated after 5 min by 30 sec centrifugation at 10,000 x g. The supernatant (90 µl) was collected and counted in a Packard Model 2,000 CA liquid scintillation counter with Picofluor as a scintillation cocktail. NA release was expressed as % of total [³H]-NA incorporated. Total NA incorporation was determined by measuring [³H]-incorporation in 20 µg prelabeled washed synaptosomes.

50 kDa protein = experiment: Phosphorylation of synaptosomal plasma membranes: CaM-dependent phosphorylation of the 50 kDa protein; format: biochemical; conditions: in the presence of added CaM
Procedure: Subcellular fractionation and phosphorylation assay were performed according to Kristjansson et al., (1982). […] After a preincubation at 30°C for 5 min, the phosphorylation reaction was started by adding the ATP. The reaction was stopped after 15 sec. All compounds to be tested were present at the start of the preincubation. […] Phosphorylation of B-50 and the 50 kDa protein, which was only phosphorylated after addition of CaM, was measured in the presence of exogenous CaM (3 units/assay) and quantified.

[5] = test system: Normal human keratinocytes; experiment: Cornified envelope formation (keratinocyte differentiation); format: cell-based; conditions: 4 h plus 48 h exposure, increasing concentrations
Procedure: Normal human keratinocytes were grown to confluence at low calcium concentration in the presence of 5% FCS, 1 µM isoproterenol and 10 ng EGF per ml. They were first exposed for 4 h to increasing concentrations of test compounds and subsequently reincubated for 48 h in medium containing normal calcium concentration and the same additives, test compounds and [³H]-leucine (1 µCi/ml). Thereafter, both spontaneous and ionophore-induced cornified envelope (CE) formation was determined [King et al. (1986) Exp. Cell. Res., 167: 252].

HaCaT cells [6] = experiment: Keratinocyte morphology, phase contrast microscopy; format: cell-based, human; conditions: 30 nM, monitored during 72 hours
Procedure: HaCaT cells were cultured under standard conditions. 24 h after plating (2.5 x 10⁶ cells) the medium was replaced by medium containing the test compounds. During 72 hours cell morphology was frequently monitored using a phase contrast photomicroscope (Olympus IMT-2, Tokyo, Japan).

[7] = 16 min, compound added at peak, 16 min after opsonized zymosan, read-out: Peak CL
[8] = 30 min preincubation, unstimulated, read-out: Spontaneous CL
[9] = stimulation with opsonized zymosan after preincubation, read-out: Induced CL

| Compound | Trypane blue (PMHL) | LDH release (HaCaT cells [1]) | pIC50 [2, 7] | pIC50 [2, 8] | pIC50 [2, 9] | also measured |
| --- | --- | --- | --- | --- | --- | --- |
| CN1CCN(CCCN2c3ccccc3Sc3ccc(C(F)(F)F)cc32)CC1 [Trifluoroperazine] | 100 µM | 30 µM | – | – | – | – |
| NCCCCCCNS(=O)(=O)c1cccc2c(Cl)cccc12 [W-7, N-(6-aminohexyl)-5-chloro-1-naphthalene sulfonamide] | 15 µM | 100 µM | 5.00 | 5.20 | 5.20 | – |
| CCCCCCCCCCCCC/C=C/[C@@H](O)[C@@H](N)CO [Sphingosine] | – | – | – | – | – | ear edema (ear thickness), compared with tiflucarbine [3]: more potent |
| Polymyxin B | – | – | – | – | – | B-50 phosphorylation ([4]; in the presence of exogenous CaM (3 units/assay)): dose-dependently inhibited; phosphorylation of B-50 (% of control) ([4]; concentration 0.1 µM): 95 ± 8 % of control; phosphorylation of B-50 (% of control) ([4]; concentration 1 µM): 103 ± 9 % of control; phosphorylation of B-50 (% of control) ([4]; concentration 10 µM): 82 ± 11 % of control; phosphorylation of B-50 (% of control) ([4]; concentration 100 µM): 18 ± 8 % of control; noradrenaline release (rat brain synaptosomes; high (10 µM) Ca²⁺): 19.4 ± 2.38 % of total [³H]-noradrenaline; noradrenaline release (rat brain synaptosomes; low (10 nM) Ca²⁺): 16.5 ± 1.03 % of total [³H]-noradrenaline; phosphorylation of the 50 kDa protein (50 kDa protein): dose-dependently inhibited |
| CN[C@@H]1C[C@H]2O[C@@](C)([C@@H]1OC)n1c3ccccc3c3c4c(c5c6ccccc6n2c5c31)C(=O)NC4 [Staurosporine] | 3 µM | 10 µM | – | – | – | spontaneous CE formation [5]: marked effect; effect on morphology (HaCaT cells [6]): effects on morphology |
| CC(CN1c2ccccc2Sc2ccccc21)N(C)C (stereo not drawn) [Promethazine] | 100 µM | 100 µM | 4.21 | 4.63 | 4.50 | – |
| CSc1ccc2c(c1)N(CCC1CCCCN1C)c1ccccc1S2 (stereo not drawn) [Thioridazine] | – | – | 4.97 | 5.62 | 5.19 | – |
| CN(C)CCCN1c2ccccc2Sc2ccc(Cl)cc21 [Chlorpromazine] | 30 µM | 30 µM | 4.66 | 5.31 | 5.12 | – |

Source: patent EP0499337A1, “Use of tetra:hydro-thieno-pyrido-indole derivatives for the treatment of skin disorders” (YAMANOUCHI EUROPE B.V., priority 1991, dated 1992)
